Where “and” joins values, the source holds several entries; their conditions need not be identical. Equal values may be shown once. Toxic doses and inconclusive results are not listed. Rule as the data show it: active = T/C of 150% or more; inactive = T/C below 125%.
Test system: L1210 leukemia ip in BDF1 mice, survival T/C
Assay: NCI In Vivo Anticancer Drug Screen. Data for tumor model L1210 Leukemia (intraperitoneal) in B6D2F1 (BDF1) mice
Conditions: endpoint: mean survival time, higher = longer survival
In short: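 Transplantable tumor model; survival measured in treated vs vehicle control mice. Value = treated/control.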

[1] = dose: 100.0 mg/kg/injection, schedule: Q01DX001 (ip), vehicle: carboxymethylcellulose (CMC)
[2] = dose: 200.0 mg/kg/injection, schedule: Q01DX001 (ip), vehicle: carboxymethylcellulose (CMC)
[3] = dose: 400.0 mg/kg/injection, schedule: Q01DX001 (ip), vehicle: carboxymethylcellulose (CMC)
[4] = dose: 10.0 mg/kg/injection, schedule: Q01DX001 (ip), vehicle: saline
[5] = dose: 20.0 mg/kg/injection, schedule: Q01DX001 (ip), vehicle: saline
[6] = dose: 100.0 mg/kg/injection, schedule: Q01DX001 (ip), vehicle: saline
[7] = dose: 200.0 mg/kg/injection, schedule: Q01DX001 (ip), vehicle: saline
[8] = dose: 400.0 mg/kg/injection, schedule: Q01DX001 (ip), vehicle: saline
[9] = dose: 100.0 mg/kg/injection, schedule: Q01DX009 (ip), vehicle: saline with Tween-80
[10] = dose: 50.0 mg/kg/injection, schedule: Q01DX009 (ip), vehicle: saline with Tween-80
[11] = dose: 100.0 mg/kg/injection, schedule: Q01DX001 (ip), vehicle: saline with Tween-80
[12] = dose: 50.0 mg/kg/injection, schedule: Q04DX003 (ip), vehicle: saline with Tween-80
[13] = dose: 100.0 mg/kg/injection, schedule: Q04DX003 (ip), vehicle: saline with Tween-80

Measured: T/C

CSC1c2ccccc2-c2ccccc21
inactive: dose: 44.0 mg/kg/injection, schedule: Q01DX001 (ip), vehicle: carboxymethylcellulose (CMC) 100 % of control | dose: 44.0 mg/kg/injection, schedule: Q01DX001 (ip), vehicle: other 105 % of control | dose: 66.0 mg/kg/injection, schedule: Q01DX001 (ip), vehicle: carboxymethylcellulose (CMC) 94 % of control and 105 % of control | dose: 66.0 mg/kg/injection, schedule: Q01DX001 (ip), vehicle: other 97 % of control | [1] 106 % of control and 111 % of control | dose: 100.0 mg/kg/injection, schedule: Q01DX001 (ip), vehicle: other 100 % of control | dose: 150.0 mg/kg/injection, schedule: Q01DX001 (ip), vehicle: carboxymethylcellulose (CMC) 95 % of control and 100 % of control | dose: 150.0 mg/kg/injection, schedule: Q01DX001 (ip), vehicle: other 97 % of control | [2] 104 % of control | [3] 107 % of control

Cc1ccc(NP(=O)(Oc2c(F)c(F)c(F)c(F)c2F)N(CCCl)CCCl)cc1 (stereo unspecified)
inactive: dose: 62.5 mg/kg/injection, schedule: Q01DX001 (ip), vehicle: other 100 % of control | dose: 125.0 mg/kg/injection, schedule: Q01DX001 (ip), vehicle: other 112 % of control | dose: 250.0 mg/kg/injection, schedule: Q01DX001 (ip), vehicle: other 106 % of control | dose: 500.0 mg/kg/injection, schedule: Q01DX001 (ip), vehicle: other 108 % of control

O=[N+]([O-])c1ccc([As+](c2ccccc2)(c2ccccc2)c2ccccc2)cc1
inactive: [4] 88 % of control | [5] 92 % of control

Cc1ccc(C(c2ccc(C)c(C)c2)C(O)C(O)C(O)CO)cc1C (stereo unspecified)
inactive: [6] 94 % of control and 100 % of control | [7] 102 % of control and 96 % of control | [8] 97 % of control and 96 % of control

CCCN(CCC)CC(O)c1ccc2cccc3c2c1CC3 (stereo unspecified)
inactive: dose: 75.0 mg/kg/injection, schedule: Q01DX001 (ip), vehicle: saline 104 % of control | dose: 150.0 mg/kg/injection, schedule: Q01DX001 (ip), vehicle: saline 98 % of control | dose: 300.0 mg/kg/injection, schedule: Q01DX001 (ip), vehicle: saline 95 % of control

C#CCn1c2ccccc2c2ccccc21
inactive: [6] 97 % of control | [9] 95 % of control | [7] 103 % of control | dose: 200.0 mg/kg/injection, schedule: Q01DX009 (ip), vehicle: saline with Tween-80 101 % of control | [8] 103 % of control | dose: 400.0 mg/kg/injection, schedule: Q01DX009 (ip), vehicle: saline with Tween-80 96 % of control

O=C1C(=C(C(F)(F)Cl)C(F)(F)Cl)C2CCC1C2 (stereo unspecified)
inactive: dose: 6.25 mg/kg/injection, schedule: Q01DX009 (ip), vehicle: saline with Tween-80 95 % of control | dose: 12.0 mg/kg/injection, schedule: Q01DX001 (ip), vehicle: saline with Tween-80 104 % of control | dose: 12.5 mg/kg/injection, schedule: Q01DX009 (ip), vehicle: saline with Tween-80 95 % of control | dose: 25.0 mg/kg/injection, schedule: Q01DX001 (ip), vehicle: saline with Tween-80 100 % of control | dose: 25.0 mg/kg/injection, schedule: Q01DX009 (ip), vehicle: saline with Tween-80 102 % of control and 92 % of control | dose: 50.0 mg/kg/injection, schedule: Q01DX001 (ip), vehicle: saline with Tween-80 100 % of control | [10] 107 % of control | [11] 91 % of control

COc1cc(C2C(C(=O)OC/C=C/c3ccc4c(c3)OCO4)C(c3cc(OC)c(OC)c(OC)c3)C2C(=O)OC/C=C/c2ccc3c(c2)OCO3)cc(OC)c1OC (stereo unspecified)
inactive: [1] 90 % of control | [2] 95 % of control | [3] 88 % of control

O=C(Oc1c(Cl)c(Cl)c(Cl)c(Cl)c1Cl)c1cc(Cl)cc(Cl)c1Br
inactive: dose: 25.0 mg/kg/injection, schedule: Q04DX003 (ip), vehicle: saline with Tween-80 105 % of control | [12] 102 % of control | [13] 97 % of control and 91 % of control

Cc1cn(C2CC(O)C(COC(c3ccccc3)(c3ccccc3)c3ccccc3)O2)c(=O)[nH]c1=O (stereo unspecified)
inactive: dose: 100.0 mg/kg/injection, schedule: Q01DX005 (ip), vehicle: saline 104 % of control | dose: 200.0 mg/kg/injection, schedule: Q01DX005 (ip), vehicle: saline 96 % of control

COc1ccc(OC)c(C(=O)CCC(=O)O)c1
inactive: dose: 50.0 mg/kg/injection, schedule: Q01DX001 (ip), vehicle: carboxymethylcellulose (CMC) 94 % of control | [1] 110 % of control | [2] 100 % of control | [3] 107 % of control

CC1C2c3ccccc3C(c3ccccc32)C1S(=O)(=O)F (stereo unspecified)
inactive: dose: 100.0 mg/kg/injection, schedule: Q01DX009 (ip), vehicle: Klucel (hydroxypropylcellulose) (HPC) 97 % of control | dose: 200.0 mg/kg/injection, schedule: Q01DX009 (ip), vehicle: Klucel (hydroxypropylcellulose) (HPC) 100 % of control | dose: 400.0 mg/kg/injection, schedule: Q01DX009 (ip), vehicle: Klucel (hydroxypropylcellulose) (HPC) 106 % of control

COC(=O)c1ccccc1N=NN(C)CC(C)C
inactive: [10] 110 % of control | [12] 103 % of control | [9] 121 % of control | [13] 114 % of control

Cc1ccc(S(=O)(=O)O)cc1.[Ag]
inactive: dose: 25.0 mg/kg/injection, schedule: Q04DX002 (ip), vehicle: saline + alcohol 92 % of control | dose: 50.0 mg/kg/injection, schedule: Q04DX002 (ip), vehicle: saline + alcohol 96 % of control

CC(C)=CCNc1ncnc2nc[nH]c12
inactive: dose: 5.0 mg/kg/injection, schedule: Q01DX001 (ip), vehicle: saline 107 % of control | [4] 95 % of control | dose: 10.0 mg/kg/injection, schedule: Q01DX009 (ip), vehicle: saline with Tween-80 104 % of control | [5] 101 % of control | dose: 20.0 mg/kg/injection, schedule: Q01DX009 (ip), vehicle: saline with Tween-80 103 % of control | dose: 20.0 mg/kg/injection, schedule: Q04DX003 (ip), vehicle: saline with Tween-80 100 % of control | dose: 40.0 mg/kg/injection, schedule: Q01DX001 (ip), vehicle: saline 101 % of control | dose: 40.0 mg/kg/injection, schedule: Q01DX009 (ip), vehicle: saline with Tween-80 98 % of control

c1ccc(N/N=C(\Oc2ccccc2)c2ccccc2)cc1
inactive: [13] 93 % of control | dose: 200.0 mg/kg/injection, schedule: Q04DX003 (ip), vehicle: saline with Tween-80 96 % of control | dose: 400.0 mg/kg/injection, schedule: Q04DX003 (ip), vehicle: saline with Tween-80 96 % of control

O=S(=O)(O)OCc1cc(O)c(OS(=O)(=O)O)c(Br)c1Br
inactive: [11] 97 % of control | dose: 200.0 mg/kg/injection, schedule: Q01DX001 (ip), vehicle: saline with Tween-80 102 % of control | dose: 400.0 mg/kg/injection, schedule: Q01DX001 (ip), vehicle: saline with Tween-80 94 % of control

Source: PubChem BioAssay AID248 (DTP/NCI, 2004)
